Holding throughout (assay): Kinase panel (mobility shift)
Format in all cases: biochemical

One test concerns the target TIE2 (Homo sapiens, UniProt Q02763). Put shortly: (§1)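 Compound at 5 um + kinase + fluor-labeled substrate, standardized mix; rxn stopped; electrophoretic separation of product/substrate on chip; activity = product vs substrate peak fluorescence. Bins A ≥95%, B 90-94%, C 80-89%.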
The target of a further test is PDGFR-b (Homo sapiens, UniProt P09619). Put shortly: as §1
Another test has as its target T1, TYRO3 (Homo sapiens, UniProt Q06418).
T1 sequence (Q06418 41-890): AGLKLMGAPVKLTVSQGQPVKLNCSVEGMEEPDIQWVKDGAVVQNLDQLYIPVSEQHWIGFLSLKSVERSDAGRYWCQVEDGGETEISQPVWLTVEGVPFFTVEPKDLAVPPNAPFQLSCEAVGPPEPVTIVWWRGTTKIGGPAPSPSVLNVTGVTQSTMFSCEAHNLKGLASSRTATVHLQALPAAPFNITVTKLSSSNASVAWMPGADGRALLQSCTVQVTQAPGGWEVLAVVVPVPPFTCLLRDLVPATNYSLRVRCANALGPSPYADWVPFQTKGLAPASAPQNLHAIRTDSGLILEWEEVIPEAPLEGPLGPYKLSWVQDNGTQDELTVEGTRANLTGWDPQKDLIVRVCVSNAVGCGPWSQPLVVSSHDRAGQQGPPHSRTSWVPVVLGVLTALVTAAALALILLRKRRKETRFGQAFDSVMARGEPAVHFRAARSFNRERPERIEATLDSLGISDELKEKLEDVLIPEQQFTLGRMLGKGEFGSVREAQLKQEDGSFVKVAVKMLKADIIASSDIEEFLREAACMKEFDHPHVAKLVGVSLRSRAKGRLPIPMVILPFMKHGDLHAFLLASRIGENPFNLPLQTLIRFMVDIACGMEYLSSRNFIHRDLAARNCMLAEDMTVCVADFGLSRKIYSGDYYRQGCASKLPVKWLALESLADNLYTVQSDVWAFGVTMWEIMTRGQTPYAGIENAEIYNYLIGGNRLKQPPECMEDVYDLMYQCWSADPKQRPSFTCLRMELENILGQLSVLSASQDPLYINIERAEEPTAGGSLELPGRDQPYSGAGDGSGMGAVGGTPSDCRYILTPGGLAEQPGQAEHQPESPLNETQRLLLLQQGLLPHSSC
Put shortly: as §1

The next test deals with P38-b (Homo sapiens, UniProt Q15759). Put shortly:
as §1

The target of another test is BRK (Homo sapiens, UniProt Q13882). Put shortly: as §1
For a further test, the target named is P38-a (Homo sapiens, UniProt Q16539). The conditions noted are these: at 5 um. Put shortly:
as §1

Another test addresses EPH-A4 (Homo sapiens, UniProt P54764). Put shortly: as §1
The target in a further test is T2, MUSK (Homo sapiens, UniProt O15146).
T2 sequence (O15146 24-869): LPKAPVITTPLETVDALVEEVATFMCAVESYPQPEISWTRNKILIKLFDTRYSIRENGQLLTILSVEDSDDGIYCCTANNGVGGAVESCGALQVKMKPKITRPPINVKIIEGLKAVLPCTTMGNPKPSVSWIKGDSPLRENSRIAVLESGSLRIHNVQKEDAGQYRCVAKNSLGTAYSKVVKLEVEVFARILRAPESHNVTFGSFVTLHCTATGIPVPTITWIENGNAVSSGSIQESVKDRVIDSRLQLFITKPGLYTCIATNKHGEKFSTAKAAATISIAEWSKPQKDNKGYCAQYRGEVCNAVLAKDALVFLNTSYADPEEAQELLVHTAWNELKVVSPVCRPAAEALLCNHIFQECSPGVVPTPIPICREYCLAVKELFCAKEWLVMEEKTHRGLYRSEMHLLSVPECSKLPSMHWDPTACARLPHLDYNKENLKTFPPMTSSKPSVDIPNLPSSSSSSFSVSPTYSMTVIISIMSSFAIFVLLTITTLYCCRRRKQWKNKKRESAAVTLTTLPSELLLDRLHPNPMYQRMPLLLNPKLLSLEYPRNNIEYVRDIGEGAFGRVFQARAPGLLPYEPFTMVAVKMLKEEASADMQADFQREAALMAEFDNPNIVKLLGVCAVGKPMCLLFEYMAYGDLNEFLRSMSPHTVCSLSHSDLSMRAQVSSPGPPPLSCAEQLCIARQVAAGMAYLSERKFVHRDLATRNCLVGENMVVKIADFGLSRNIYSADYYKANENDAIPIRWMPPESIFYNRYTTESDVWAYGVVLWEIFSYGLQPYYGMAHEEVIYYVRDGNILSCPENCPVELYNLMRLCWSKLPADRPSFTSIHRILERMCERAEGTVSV
Put shortly:
as §1

A further test deals with KIT (Homo sapiens, UniProt P10721). Put shortly: as §1
KIT, sequence (P10721 26-976, species assumed): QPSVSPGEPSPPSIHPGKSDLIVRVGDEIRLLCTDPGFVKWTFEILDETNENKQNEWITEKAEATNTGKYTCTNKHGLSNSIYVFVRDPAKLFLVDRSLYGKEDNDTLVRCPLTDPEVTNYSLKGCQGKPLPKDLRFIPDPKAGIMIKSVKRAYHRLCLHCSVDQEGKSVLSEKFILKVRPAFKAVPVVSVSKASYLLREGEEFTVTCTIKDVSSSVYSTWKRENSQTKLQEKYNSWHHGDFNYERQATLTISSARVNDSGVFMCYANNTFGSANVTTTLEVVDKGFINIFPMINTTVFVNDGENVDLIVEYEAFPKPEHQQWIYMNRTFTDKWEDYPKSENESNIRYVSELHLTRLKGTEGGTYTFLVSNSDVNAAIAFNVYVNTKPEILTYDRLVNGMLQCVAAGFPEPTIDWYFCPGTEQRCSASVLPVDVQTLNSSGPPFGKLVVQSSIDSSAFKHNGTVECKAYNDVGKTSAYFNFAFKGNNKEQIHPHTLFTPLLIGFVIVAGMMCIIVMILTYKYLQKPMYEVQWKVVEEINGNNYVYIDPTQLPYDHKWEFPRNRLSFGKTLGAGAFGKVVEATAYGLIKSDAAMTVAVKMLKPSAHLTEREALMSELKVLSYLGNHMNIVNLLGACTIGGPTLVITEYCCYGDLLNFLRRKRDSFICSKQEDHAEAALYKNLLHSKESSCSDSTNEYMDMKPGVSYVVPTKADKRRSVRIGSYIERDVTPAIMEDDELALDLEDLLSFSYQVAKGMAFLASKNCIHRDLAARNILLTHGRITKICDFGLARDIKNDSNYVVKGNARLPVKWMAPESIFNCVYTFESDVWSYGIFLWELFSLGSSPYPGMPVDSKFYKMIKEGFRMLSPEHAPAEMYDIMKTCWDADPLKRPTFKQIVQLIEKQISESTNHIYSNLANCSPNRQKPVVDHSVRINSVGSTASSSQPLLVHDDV
A further test concerns the target LOK (Homo sapiens, UniProt O94804). The settings on record: at 5 um. Put shortly:
as §1

The target in a further test is RIPK2 (Homo sapiens, UniProt O43353). Put shortly: as §1
A further test deals with HIPK3 (Homo sapiens, UniProt Q9H422). Put shortly:
as §1

The target in a further test is PDGFR-a (Homo sapiens, UniProt P16234). Put shortly: as §1
PDGFR-a, sequence (P16234 24-1089, species assumed): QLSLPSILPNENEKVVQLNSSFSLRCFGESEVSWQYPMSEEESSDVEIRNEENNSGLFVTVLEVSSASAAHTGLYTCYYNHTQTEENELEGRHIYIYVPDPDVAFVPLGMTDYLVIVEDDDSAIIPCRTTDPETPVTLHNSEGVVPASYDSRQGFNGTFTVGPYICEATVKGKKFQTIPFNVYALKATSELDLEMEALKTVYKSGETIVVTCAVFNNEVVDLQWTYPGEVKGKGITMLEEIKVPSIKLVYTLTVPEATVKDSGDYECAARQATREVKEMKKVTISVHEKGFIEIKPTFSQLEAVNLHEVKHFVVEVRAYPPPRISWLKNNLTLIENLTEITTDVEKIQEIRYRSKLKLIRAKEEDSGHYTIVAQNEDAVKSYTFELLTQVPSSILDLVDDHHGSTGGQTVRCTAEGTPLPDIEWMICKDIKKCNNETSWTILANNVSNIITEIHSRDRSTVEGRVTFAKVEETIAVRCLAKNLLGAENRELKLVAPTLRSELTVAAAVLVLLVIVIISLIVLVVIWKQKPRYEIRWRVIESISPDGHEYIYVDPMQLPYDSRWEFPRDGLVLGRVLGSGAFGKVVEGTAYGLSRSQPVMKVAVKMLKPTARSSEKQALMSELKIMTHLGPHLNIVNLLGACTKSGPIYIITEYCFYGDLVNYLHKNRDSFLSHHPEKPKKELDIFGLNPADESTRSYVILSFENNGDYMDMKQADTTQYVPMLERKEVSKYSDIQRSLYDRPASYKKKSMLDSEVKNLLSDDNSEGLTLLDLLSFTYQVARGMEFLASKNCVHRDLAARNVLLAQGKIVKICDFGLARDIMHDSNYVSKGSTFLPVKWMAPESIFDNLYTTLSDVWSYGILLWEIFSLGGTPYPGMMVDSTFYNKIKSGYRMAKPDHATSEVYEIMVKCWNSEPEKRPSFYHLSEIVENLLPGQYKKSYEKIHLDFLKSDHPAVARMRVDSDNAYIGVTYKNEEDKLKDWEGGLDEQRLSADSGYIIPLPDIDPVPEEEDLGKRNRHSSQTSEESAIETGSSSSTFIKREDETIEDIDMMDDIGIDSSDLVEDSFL

The values that follow come from patent publication US11629143B2, “HipK4 inhibitors and uses thereof” (Vibliome Therapeutics, LLC, priority 2020, dated 2023).

Bounds are passed on as bounds.

HIPK3, sequence (Q9H422 whole entry, species assumed): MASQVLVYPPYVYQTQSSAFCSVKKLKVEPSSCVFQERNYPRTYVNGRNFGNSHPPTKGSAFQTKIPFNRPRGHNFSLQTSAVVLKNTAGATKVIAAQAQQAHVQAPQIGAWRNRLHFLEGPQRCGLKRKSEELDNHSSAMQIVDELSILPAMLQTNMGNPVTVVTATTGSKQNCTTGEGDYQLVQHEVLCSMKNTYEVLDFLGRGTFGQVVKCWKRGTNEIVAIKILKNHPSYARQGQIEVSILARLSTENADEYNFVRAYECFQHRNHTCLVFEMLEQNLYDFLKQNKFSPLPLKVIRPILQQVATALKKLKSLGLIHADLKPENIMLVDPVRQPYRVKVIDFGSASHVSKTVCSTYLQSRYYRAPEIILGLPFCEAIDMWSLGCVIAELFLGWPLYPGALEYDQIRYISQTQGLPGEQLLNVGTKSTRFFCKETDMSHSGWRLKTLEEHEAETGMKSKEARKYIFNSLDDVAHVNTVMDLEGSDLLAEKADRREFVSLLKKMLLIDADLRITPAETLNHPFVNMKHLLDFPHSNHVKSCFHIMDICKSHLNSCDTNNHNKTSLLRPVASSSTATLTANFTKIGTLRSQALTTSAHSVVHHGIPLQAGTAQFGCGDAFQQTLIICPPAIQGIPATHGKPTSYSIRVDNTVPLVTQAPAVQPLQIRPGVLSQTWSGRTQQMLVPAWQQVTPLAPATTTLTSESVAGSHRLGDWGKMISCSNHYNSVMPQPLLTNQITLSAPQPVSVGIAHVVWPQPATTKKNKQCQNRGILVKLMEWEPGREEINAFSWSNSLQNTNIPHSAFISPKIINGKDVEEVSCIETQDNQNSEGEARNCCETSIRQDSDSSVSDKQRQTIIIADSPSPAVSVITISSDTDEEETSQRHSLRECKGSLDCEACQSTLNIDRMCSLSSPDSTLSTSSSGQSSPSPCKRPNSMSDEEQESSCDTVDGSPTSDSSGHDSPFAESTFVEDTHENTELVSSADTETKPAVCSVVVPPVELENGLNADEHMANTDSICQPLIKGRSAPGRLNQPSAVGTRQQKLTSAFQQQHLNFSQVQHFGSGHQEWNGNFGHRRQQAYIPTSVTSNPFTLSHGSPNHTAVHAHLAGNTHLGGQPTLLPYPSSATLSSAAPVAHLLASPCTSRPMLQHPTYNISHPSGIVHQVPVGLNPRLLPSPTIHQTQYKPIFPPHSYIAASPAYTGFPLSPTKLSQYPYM
P38-a, sequence (Q16539 whole entry): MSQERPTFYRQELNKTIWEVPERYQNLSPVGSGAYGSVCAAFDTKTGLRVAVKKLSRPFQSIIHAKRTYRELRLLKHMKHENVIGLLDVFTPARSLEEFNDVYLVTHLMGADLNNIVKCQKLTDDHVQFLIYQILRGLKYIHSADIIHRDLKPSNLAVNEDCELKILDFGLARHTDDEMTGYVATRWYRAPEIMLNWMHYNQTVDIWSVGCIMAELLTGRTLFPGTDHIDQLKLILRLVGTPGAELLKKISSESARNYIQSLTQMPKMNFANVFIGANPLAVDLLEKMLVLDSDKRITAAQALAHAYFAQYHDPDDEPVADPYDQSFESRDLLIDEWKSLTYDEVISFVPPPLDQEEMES
PDGFR-b, sequence (P09619 33-1106, species assumed): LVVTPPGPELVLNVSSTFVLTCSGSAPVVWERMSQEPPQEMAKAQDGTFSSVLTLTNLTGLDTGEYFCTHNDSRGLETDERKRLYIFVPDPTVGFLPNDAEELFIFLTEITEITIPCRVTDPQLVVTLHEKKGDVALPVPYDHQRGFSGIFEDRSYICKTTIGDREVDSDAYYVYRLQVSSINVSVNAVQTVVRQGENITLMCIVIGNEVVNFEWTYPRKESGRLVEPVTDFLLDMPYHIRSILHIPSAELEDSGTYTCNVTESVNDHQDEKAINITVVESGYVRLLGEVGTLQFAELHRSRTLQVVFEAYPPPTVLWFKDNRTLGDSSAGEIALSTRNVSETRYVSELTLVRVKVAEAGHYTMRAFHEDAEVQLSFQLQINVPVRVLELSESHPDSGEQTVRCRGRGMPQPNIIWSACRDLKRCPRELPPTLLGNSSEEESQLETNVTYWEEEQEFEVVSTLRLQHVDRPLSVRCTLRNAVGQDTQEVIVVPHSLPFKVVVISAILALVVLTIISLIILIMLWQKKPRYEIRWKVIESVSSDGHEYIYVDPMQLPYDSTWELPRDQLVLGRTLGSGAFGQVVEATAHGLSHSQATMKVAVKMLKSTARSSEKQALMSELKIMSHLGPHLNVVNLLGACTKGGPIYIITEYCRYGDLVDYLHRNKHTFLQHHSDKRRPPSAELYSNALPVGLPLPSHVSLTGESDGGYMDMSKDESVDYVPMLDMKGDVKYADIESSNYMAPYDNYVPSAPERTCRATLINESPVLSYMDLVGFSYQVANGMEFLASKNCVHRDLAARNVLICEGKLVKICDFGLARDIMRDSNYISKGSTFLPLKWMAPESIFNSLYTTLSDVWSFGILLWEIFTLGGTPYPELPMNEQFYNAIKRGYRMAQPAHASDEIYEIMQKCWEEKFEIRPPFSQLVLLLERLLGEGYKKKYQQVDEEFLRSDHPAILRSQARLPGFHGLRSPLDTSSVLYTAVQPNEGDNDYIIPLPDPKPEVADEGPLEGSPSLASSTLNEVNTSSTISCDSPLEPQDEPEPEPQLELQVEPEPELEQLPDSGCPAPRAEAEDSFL
P38-b, sequence (Q15759 whole entry, species assumed): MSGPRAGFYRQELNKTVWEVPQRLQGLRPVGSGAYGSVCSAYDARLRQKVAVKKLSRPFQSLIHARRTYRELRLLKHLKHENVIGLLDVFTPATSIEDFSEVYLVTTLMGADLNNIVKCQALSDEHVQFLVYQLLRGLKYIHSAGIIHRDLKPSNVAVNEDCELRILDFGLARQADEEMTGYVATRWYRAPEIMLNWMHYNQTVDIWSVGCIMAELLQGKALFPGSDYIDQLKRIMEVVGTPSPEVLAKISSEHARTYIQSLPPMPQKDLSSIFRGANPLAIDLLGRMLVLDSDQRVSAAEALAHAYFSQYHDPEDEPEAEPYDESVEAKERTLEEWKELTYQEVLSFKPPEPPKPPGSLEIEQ

In general, inhibition refers to the change of the read-out against control, counted positive when it falls. Regarding `CSc1nc(C(=O)Nc2ccc(Oc3ccnc(C(=O)NC4CNC4)c3)c(F)c2)c(-c2ccc(F)s2)o1` [Compound 27], the inhibition at 5 µM at TIE2, on PDGFR-b, on TYRO3, on P38-b, on BRK and at EPH-A4 was below 50% in each case. Also, the inhibition at 5 µM at MUSK, at KIT, on RIPK2, on HIPK3 and on PDGFR-a was below 50% each time. The “inhibition of kinase activity, P38-a” value on P38-a is “D (category D for 50-79)”. Moreover, the “inhibition of kinase activity, LOK” value at LOK was “E (category E is less than 50%)”.

As to `CSc1nc(C(=O)Nc2ccc(Oc3ccnc(C(=O)NC4COC4)c3)c(F)c2)c(-c2ccc(F)s2)o1` [Compound 28], the inhibition at 5 µM on TIE2, at PDGFR-b, at TYRO3, on P38-b, at BRK and at EPH-A4 was below 50% throughout. The inhibition at 5 µM on MUSK, at KIT, on RIPK2, on HIPK3 and on PDGFR-a was below 50% throughout. Also, on P38-a, the “inhibition of kinase activity, P38-a” value was “E (category E is less than 50%)”. Also, on LOK, the “inhibition of kinase activity, LOK” value was “E (category E is less than 50%)”.

As for `CNC(=O)c1cc(Oc2ccc(NC(=O)c3nc(SC(C)C)oc3-c3ccc(F)cc3)cc2F)ccn1` [Compound 34], the inhibition at 5 µM on TIE2 is 80 to 89%; on PDGFR-b, below 50%; at TYRO3, 80 to 89%; at P38-b, 50 to 79%; on BRK, 90 to 94%; at EPH-A4 it was 90 to 94%. Moreover, the inhibition at 5 µM on MUSK is below 50%; at KIT it was 50 to 79%; at RIPK2 it was 50 to 79%; on HIPK3, below 50%; at PDGFR-a it was below 50%. Further, the “inhibition of kinase activity, P38-a” value on P38-a was “C (C=80%-89% at 5 um)”. For the same compound, the “inhibition of kinase activity, LOK” value at LOK is “A (A=95% or greater at 5 um)”.

With `[2H]C([2H])([2H])NC(=O)c1cc(Oc2ccc(NC(=O)c3nc(SC)oc3-c3ccc(F)c(F)c3)cc2F)ccn1` [Compound 33], the inhibition at 5 µM was below 50% on TIE2; below 50% at PDGFR-b; 50 to 79% at TYRO3; below 50% at P38-b; 50 to 79% at BRK; below 50% at EPH-A4. Further, the inhibition at 5 µM is below 50% on MUSK; below 50% at KIT; 50 to 79% at RIPK2; 50 to 79% on HIPK3; below 50% at PDGFR-a. Also, the “inhibition of kinase activity, P38-a” value on P38-a is “C (C=80%-89% at 5 um)”. Besides, the “inhibition of kinase activity, LOK” value at LOK was “C (C=80%-89% at 5 um)”.

Take `CNC(=O)c1cc(Oc2ccc(NC(=O)c3nc(OC)oc3-c3ccc(F)cc3)cc2F)ccn1` [Compound 15]: the inhibition at 5 µM was below 50% on TIE2; below 50% on PDGFR-b; 90 to 94% at TYRO3; below 50% at P38-b; 50 to 79% on BRK; 50 to 79% at EPH-A4. The inhibition at 5 µM on MUSK is below 50%; at KIT, 50 to 79%; at RIPK2 it was 80 to 89%; at HIPK3, 50 to 79%; on PDGFR-a, 50 to 79%. Further, at P38-a, the “inhibition of kinase activity, P38-a” value is “D (category D for 50-79)”. Also, the “inhibition of kinase activity, LOK” value at LOK was “C (C=80%-89% at 5 um)”.

`CNC(=O)c1cc(Oc2ccc(NC(=O)c3nc(NC)sc3-c3ccc(F)cc3C)cc2F)ccn1` [Compound 23]: the inhibition at 5 µM at TIE2 was 50 to 79%; on PDGFR-b, below 50%; on TYRO3, 80 to 89%; on P38-b, below 50%; at BRK it was 50 to 79%; at EPH-A4, 50 to 79%. Besides, the inhibition at 5 µM is below 50% at MUSK; 50 to 79% on KIT; 80 to 89% on RIPK2; below 50% on HIPK3; below 50% at PDGFR-a. Besides, the “inhibition of kinase activity, P38-a” value on P38-a is recorded as “D (category D for 50-79)”. Further, the “inhibition of kinase activity, LOK” value on LOK is “D (category D for 50-79)”.

Take `CNC(=O)c1cc(Oc2ccc(NC(=O)c3nc(SC)oc3-c3ccc(F)cc3Cl)cc2)ccn1` [Compound 3]: the inhibition at 5 µM at TIE2 is 50 to 79%; at PDGFR-b, below 50%; on TYRO3 it was 90 to 94%; on P38-b, below 50%; at BRK, 90 to 94%; at EPH-A4, below 50%. Further, the inhibition at 5 µM is 50 to 79% at MUSK; 50 to 79% at KIT; 90 to 94% at RIPK2; below 50% at HIPK3; 50 to 79% at PDGFR-a. In addition, the “inhibition of kinase activity, P38-a” value at P38-a is given as “E (category E is less than 50%)”. The “inhibition of kinase activity, LOK” value at LOK is recorded as “E (category E is less than 50%)”.

On to `CSc1nc(C(=O)Nc2ccc(Oc3ccnc(C(=O)NC4COC4)c3)c(F)c2)c(-c2ccc(F)c(F)c2)o1` [Compound 37], for which the inhibition at 5 µM at TIE2, on PDGFR-b, on TYRO3, at P38-b, at BRK and at EPH-A4 was below 50% each time. Further, the inhibition at 5 µM on MUSK, at KIT, on RIPK2, on HIPK3 and at PDGFR-a was below 50% each time. Moreover, at P38-a, the “inhibition of kinase activity, P38-a” value was “C (C=80%-89% at 5 um)”. For the same compound, the “inhibition of kinase activity, LOK” value on LOK was “E (category E is less than 50%)”.
